Key:
[1] = tested on: RAW264.7 rat macrophage cell line; test: MTT assay, normal cells RAW264.7; type: cell-based; conditions: rat, 48 h
Description: (§1) The cytotoxicity against normal cells and cancer cells was confirmed using the MTT assay for the novel compounds KP2 to KP8 prepared in Example 1.
(§2) MTT assay method is as follows:
(§3) Normal cells (RAW264.7 rat macrophage cell line (osteoblast progenitor cell) and NIH3T3 mouse fibroblast line) and cancer cells (AGS human gastric cancer cell line, A549 human lung cancer cell line, HepG2 human liver cancer cell line, HCT116 human colon cancer cell line, PC3 human prostate cancer Cell line, Caki-1 human kidney cancer cell line, T24 human bladder cancer cell line, HT1080 human fibrosarcoma cell line, B16F10 mouse melanoma cell line) were cultured in 5% CO2 in 96-well plates containing DMEM with 10% FBS (fetal bovine serum). After incubation, KP2 to KP8 and controls (osmundacetone and 4-hydroxybenzalacetone) were added to the cell medium and incubated for 48 hours. Thereafter, 100 μl of MTT (0.5 mg/mL phosphate buffered saline) was added, followed by incubation for 2 hours. 100 μl of DMSO was added to each well, followed by incubation for 10 minutes, and the absorbance was measured at 550 nm using a microplate reader (SPCTRA MAX 340PC, Molecular Devices, USA). Absorbance is calculated by the formula below as an indicator of the number of cells that survived, and reproducibility was confirmed by three experiments.
(§4) The rate of cell proliferation (%)=OD550(sample)/OD550(control)

[2] = tested on: NIH3T3 mouse fibroblast line; test: MTT assay, normal cells NIH3T3; type: cell-based; conditions: for LD50 Normal cells NTH3T3: mouse, 48 h
Description: as §1, §2, §3, §4

[3] = tested on: osteoclast differentiation from bone marrow cells (RANKL and M-CSF); test: TRAP assay, osteoclast differentiation and proliferation; type: cell-based, C57BL/6 mice; conditions: Osteoclast; TRAP-positive multinucleated cells, mouse bone marrow cells, 6-7 days; read-out: osteoclast differentiation inhibitory activity IC50
Experimental: The specific method of the TRAP assay is as follows:
The tibia and femur were aseptically excised from 6 to 8 weeks old male C57BL/6 mice, and bone marrow cells were collected aseptically with a syringe (21G, Korea Green Cross). Bone marrow cells were suspended in 500 μl of -MEM medium (Gibco BRL Co.) containing sodium bicarbonate (2.0 g/L), streptomycin (100 mg/L) and penicillin ([…]), and aliquoted into a 48-well plate, and assay was carried out with triplicate. The progenitor cells of osteoclasts, monocytes, were isolated and treated with RANKL and M-CSF, which are differentiation promoters, to differentiate into osteoclasts within 5-7 days.
1) Sample preparation: KP2 to KP8 (0.5 μM, 1 μM, 5 μM or 10 μM), Fosamax (0.5 μM, 1 μM, 5 μM, or 10 μM) and the like were dissolved in DMSO (dimethylsulfoxide) or sterile distilled water at appropriate concentrations, respectively.
2) Sample administration: The Samples were continuously administered to the medium at 1:20 (v/v; 25 μL of sample per 500 μL of medium) from the first day of culture of bone marrow cells, and the medium was replaced at 3 days intervals.
3) Osteoclast differentiation measurement: Osteoclasts were defined as TRAP-positive multinucleated cells stained with TRAP. […] The reaction reagents were stored in the refrigerator until use.
Bone marrow cells were cultured in a medium containing differentiation factors for 6-7 days, and then the medium was removed, washed with PBS, and fixed in PBS containing 10% formalin for 2-5 minutes. After fixed for 1 minute with a 1:1 mixture of ethanol and acetone, and dried. The fixed cells were treated with TRAP staining solution for 60 minutes at 37° C. with light blocking, washed with PBS, and then stained with Hematoxylin.
Among the TRAP-positive cells in the microscope field, cells with two or more nuclei were determined as osteoclasts and the number of cells was measured.

[4] = tested on: B16F10 mouse melanoma cell line; test: MTT assay, cancer cells B16F10; type: cell-based; conditions: 48 hours, H16F10
Description: as §1, §2, §3, §4

[5] = tested on: PC3 human prostate cancer Cell line; test: MTT assay, cancer cells PC3; type: cell-based; conditions: 48 hours
Description: as §1, §2, §3, §4

[6] = tested on: T24 human bladder cancer cell line; test: MTT assay, cancer cells T24; type: cell-based; conditions: for LD63 Cancer cell T24: MTT assay, 48 hours
Description: as §1, §2, §3, §4

[7] = tested on: HT1080 human fibrosarcoma cell line; test: MTT assay, cancer cells HT1080; type: cell-based; conditions: 48 hours
Description: as §1, §2, §3, §4

[8] = tested on: AGS human gastric cancer cell line; test: MTT assay, cancer cells AGS; type: cell-based; conditions: 48 hours
Description: as §1, §2, §3, §4

[9] = tested on: A549 human lung cancer cell line; test: MTT assay, cancer cells A549; type: cell-based; conditions: for LD63 Cancer cell A549: MTT assay, 48 hours
Description: as §1, §2, §3, §4

[10] = tested on: HepG2 human liver cancer cell line; test: MTT assay, cancer cells HepG2; type: cell-based; conditions: for cancer cell inhibitory activity versus Osmundacetone: HepG2 hepatocellular carcinoma cells; for LD63 Cancer cell HepG2: MTT assay, 48 hours
Description: as §1, §2, §3, §4

[11] = tested on: HCT116 human colon cancer cell line; test: MTT assay, cancer cells HCT116; type: cell-based; conditions: for inhibitory activity better than Osmundacetone: HP116 colorectal cancer cells; for LD63 Cancer cell HCT116: MTT assay, 48 hours
Description: as §1, §2, §3, §4

[12] = tested on: Caki-1 human kidney cancer cell line; test: MTT assay, cancer cells Caki-1; type: cell-based; conditions: 48 hours
Description: as §1, §2, §3, §4

[13] = tested on: osteoblasts (mouse MC3T3-E1); test: ALP (Alkaline phosphatase) assay, osteoblast activity; type: cell-based; conditions: for ALP activity / osteoblast activation versus control: 10 μM and 50 μM; for % Activation of ALP activity: MC3T3-E1, 14 days, percentage against control
Experimental: Effect of KP4 to KP6 on proliferation and differentiation of osteoblast were confirmed using ALP (Alkaline phosphatase) assay, a method for measuring osteoblast activity.
Alkaline phosphatase (ALP), which is present in the cell membranes of osteoblasts, is known as a marker of osteoblast activity and is a regulator of inorganic phosphate transport, cell division or differentiation during calcification. Therefore, ALP activity was measured to determine the effect of the compounds of the present invention on the activity of osteoblasts. ALP activity was indirectly calculated by measuring the amount of p-nitrophenol, which is produced from hydrolysis of p-nitrophenyl phosphate (pNPP, Sigma, St. Louis, Mo., USA) in which ALP act as a catalyst, using a microplate reader at 405 nm wavelength.
Specifically, osteoblasts (mouse MC3T3-E1) were aliquoted into a 96-well plate (3×10^3 cells/100 μL/well) with α-MEM medium containing ascorbic acid (50 μg/mL) and 10 mM β-glycerophosphate, a differentiation factors of osteoblast. Then, KP4 to KP6 of the present invention, and osmundacetone were added at a final concentration of 10 μM and 50 μM, followed by changing medium every 72 hours and incubating for 14 days. After 14 days, the culture medium was removed from each well, washed three times with PBS, lysed with 0.2% Nonidet P-40/10 mmol/L MgCl2, and then treated ultrasonic wave with sosonifier cell disrupter (Model W-380, Heat Systems-Ultrasonics Inc., Farmingdale, N.Y.) for 3 minutes. The cell lysate was centrifuged at 1500 g for 10 minutes and the supernatant was collected to measure ALP activity. To account for changes in ALP activity according to cell number differences, total protein levels were measured using bicinchoninic acid (BCA) protein assay kit with bovine serum albumin as the standard protein, and enzyme activity was expressed as a percentage against the control group without the compound treatment.

| Compound | LD50 Normal cells RAW264.7 [1] [µM] | LD50 Normal cells NTH3T3 [2] [µM] | IC50 [3] [µM] | Cytotoxicity, B16F10 cells [4] | LD63 Cancer cell PC3 [5] | LD63 Cancer cell T24 [6] | LD63 Cancer cell HT1080 [7] | LD63 Cancer cell AGS [8] [µM] | LD63 Cancer cell A549 [9] [µM] | LD63 Cancer cell HepG2 [10] [µM] | inhibitory activity better than Osmundacetone [11] [times] | LD63 Cancer cell HCT116 [11] | LD63 Cancer cell Caki-1 [12] [µM] | ALP activity / osteoblast activation versus control [13] | % Activation of ALP activity ([13]; 10 μM) [%] | % Activation of ALP activity ([13]; 50 μM) [%] | further results |
| --- | --- | --- | --- | --- | --- | --- | --- | --- | --- | --- | --- | --- | --- | --- | --- | --- | --- |
| CC(=O)C=Cc1ccc(O)cc1 [4-Hydroxybenzalacetone, reference compound] | 294 ± 45 | 201 ± 10 |  |  |  |  |  |  |  |  |  |  |  |  |  |  |  |
| NCCCC(O)(P(=O)(O)O)P(=O)(O)O [Fosamax, reference compound] |  |  | 4 |  |  |  |  |  |  |  |  |  |  |  |  |  |  |
| CC(=O)/C=C/c1ccc(C)c(O)c1 [KP2, (E)-4-(3-hydroxy-4-methylphenyl)but-3-en-2-one] | 395 ± 22 | 688 ± 12 |  | 298 ± 27 µM | 309 ± 3.1 µM | 1120 ± 67 µM | 256 ± 14 µM | 209 ± 5.9 | 471 ± 24 | 339 ± 79 | 2 | 380 ± 32 µM | 387 ± 57 |  |  |  | cancer cell inhibitory activity versus Osmundacetone ([9]; A549 lung cancer cells): significantly better cancer cell inhibitory activity; cancer cell inhibitory activity versus Osmundacetone [10]: significantly better cancer cell inhibitory activity; cytotoxicity to normal cells [2]: weak cytotoxicity |
| CC(=O)/C=C/c1ccc(F)c(O)c1 [KP3, (E)-4-(4-fluoro-3-hydroxyphenyl)but-3-en-2-one] | 503 ± 57 | >5000 |  | 278 ± 15 µM | 387 ± 48 µM | >5,000 μM | 379 ± 10 µM | 239 ± 14 | 1090 ± 46 | 612 ± 95 | 2 | 389 ± 18 µM | 408 ± 12 |  |  |  |  |
| COc1cc(/C=C/C(C)=O)ccc1O [KP4, (E)-4-(4-hydroxy-3-methoxyphenyl)-3-buten-2-one] | 399 ± 42 | >5000 |  | 423 ± 39 µM | 223 ± 85 µM | >5000 µM | >5,000 μM | 417 ± 15 | 3010 ± 38 |  |  | 495 ± 13 µM | 506 ± 13 | higher ALP activity | 113 ± 2.9 | 422 ± 6.9 | ALP activity increase compared with the control group ([13]; 50 μM): ≥ 400%; osteoblast activity compared to osmundacetone treat group ([13]; 50 μM): 1.5 times |
| COc1ccc(/C=C/C(C)=O)cc1O [KP5, (E)-4-(3-hydroxy-4-methoxyphenyl)-3-buten-2-one] | 261 ± 79 | >5000 | 1 | 441 ± 58 µM | 291 ± 5.7 µM | >5000 µM | 381 ± 49 µM | 181 ± 15 | 1890 ± 210 |  |  | 491 ± 72 µM | 409 ± 11 | higher ALP activity | 103 ± 1.1 | 175 ± 0.3 |  |
| CC(=O)/C=C/c1ccc(O)c(F)c1 [KP6, (E)-4-(3-fluoro-4-hydroxyphenyl)-3-buten-2-one] | 1110 ± 48 | >5000 | 6 | 421 ± 41 µM | 205 ± 13 µM | 3610 ± 130 µM | >5,000 μM | 336 ± 3.9 | 901 ± 28 |  |  | 490 ± 38 µM | 449 ± 40 | no activity on activating osteoblast | 102 ± 0.2 | 100 ± 0.8 |  |
| Cc1ccc(/C=C/C(N)=O)cc1O [KP7, (E)-3-(3-hydroxy-4-methylphenyl)acrylamide] | >5000 | >5000 |  | 1210 ± 110 µM | 394 ± 140 µM | 1040 ± 360 µM | 309 ± 10 µM | 329 ± 14 | 989 ± 50 | 379 ± 38 | 2 | 315 ± 19 µM | 361 ± 16 |  |  |  | cancer cell inhibitory activity versus Osmundacetone [10]: significantly better cancer cell inhibitory activity |
| NC(=O)/C=C/c1ccc(F)c(O)c1 [KP8, (E)-3-(4-fluoro-3-hydroxyphenyl)acrylamide] | >5000 | >5000 |  | >5,000 μM | >5,000 μM | 203 ± 69 µM | 1090 ± 19 µM | 569 ± 4.8 | 935 ± 10 | 1280 ± 390 |  | >5,000 μM | 2990 ± 58 |  |  |  | inhibitory activity ([6]; T24 bladder cancer cells): particularly better inhibitory activity |

— patent US11629121B2, “Benzylideneacetone derivative and use thereof” (KORPHARM CO., LTD., priority 2017, dated 2023)
